Paper PMC10599993, “The PTPN2/PTPN1 inhibitor ABBV-CLS-484 unleashes potent anti-tumour immunity” (Nature, 2023)

Tests used:
Test in all cases: biochemical
Parameters in all cases: Kinase selectivity panel, IC50 of AC484 (Supplementary Table 1)
[1] = target: MAP4K4 (Homo sapiens, UniProt O95819)
[2] = target: Pim1 (Homo sapiens, UniProt P11309)
[3] = target: CAMKK2 (Homo sapiens, UniProt Q96RR4)
[4] = target: MAP4K1 (Homo sapiens, UniProt Q92918)
[5] = target: T1, LYN-B (Homo sapiens, UniProt P07948)
T1 construct: isoform B

[6] = target: RIPK2 (Homo sapiens, UniProt O43353)
[7] = target: Syk (Homo sapiens, UniProt P43405)
[8] = target: CAMK1D (Homo sapiens, UniProt Q8IU85)
[9] = target: Lck (Homo sapiens, UniProt P06239)
[10] = target: T2, PAK4KD (Homo sapiens, UniProt O96013)
T2 construct: gene PAK4; kinase domain

[11] = target: BRAF (Homo sapiens, UniProt P15056)
[12] = target: T3, Aurora 1 (Homo sapiens, UniProt Q96GD4)
T3 construct: gene AURKB

[13] = target: T4, TAK1-TAB1 (Homo sapiens, UniProt O43318)
T4 construct: gene MAP3K7

[14] = target: ACVR1 (Homo sapiens, UniProt Q04771)
[15] = target: MERTK (Homo sapiens, UniProt Q12866)
[16] = target: RET (Homo sapiens, UniProt P07949)
[17] = target: CDK8/Cyclin C (Homo sapiens, UniProt P49336)
[18] = target: T5, _PKCtheta (Homo sapiens, UniProt Q04759)
T5 construct: gene PRKCQ

[19] = target: MAP4K2 (Homo sapiens, UniProt Q12851)
[20] = target: CDK9/Cyclin K (Homo sapiens, UniProt P50750)
[21] = target: Src (Homo sapiens, UniProt P12931)
[22] = target: ITK (Homo sapiens, UniProt Q08881)
[23] = target: MINK1 (Homo sapiens, UniProt Q8N4C8)
[24] = target: CSF1R (Homo sapiens, UniProt P07333)
[25] = target: TXK (Homo sapiens, UniProt P42681)
[26] = target: T6, Zipk (Homo sapiens, UniProt O43293)
T6 construct: gene DAPK3

[27] = target: ALK (Homo sapiens, UniProt Q9UM73)
[28] = target: Zap70 (Homo sapiens, UniProt P43403)
[29] = target: ErbB2 (Homo sapiens, UniProt P04626)

Measured: IC50

Sequence of CSF1R (P07333 whole entry): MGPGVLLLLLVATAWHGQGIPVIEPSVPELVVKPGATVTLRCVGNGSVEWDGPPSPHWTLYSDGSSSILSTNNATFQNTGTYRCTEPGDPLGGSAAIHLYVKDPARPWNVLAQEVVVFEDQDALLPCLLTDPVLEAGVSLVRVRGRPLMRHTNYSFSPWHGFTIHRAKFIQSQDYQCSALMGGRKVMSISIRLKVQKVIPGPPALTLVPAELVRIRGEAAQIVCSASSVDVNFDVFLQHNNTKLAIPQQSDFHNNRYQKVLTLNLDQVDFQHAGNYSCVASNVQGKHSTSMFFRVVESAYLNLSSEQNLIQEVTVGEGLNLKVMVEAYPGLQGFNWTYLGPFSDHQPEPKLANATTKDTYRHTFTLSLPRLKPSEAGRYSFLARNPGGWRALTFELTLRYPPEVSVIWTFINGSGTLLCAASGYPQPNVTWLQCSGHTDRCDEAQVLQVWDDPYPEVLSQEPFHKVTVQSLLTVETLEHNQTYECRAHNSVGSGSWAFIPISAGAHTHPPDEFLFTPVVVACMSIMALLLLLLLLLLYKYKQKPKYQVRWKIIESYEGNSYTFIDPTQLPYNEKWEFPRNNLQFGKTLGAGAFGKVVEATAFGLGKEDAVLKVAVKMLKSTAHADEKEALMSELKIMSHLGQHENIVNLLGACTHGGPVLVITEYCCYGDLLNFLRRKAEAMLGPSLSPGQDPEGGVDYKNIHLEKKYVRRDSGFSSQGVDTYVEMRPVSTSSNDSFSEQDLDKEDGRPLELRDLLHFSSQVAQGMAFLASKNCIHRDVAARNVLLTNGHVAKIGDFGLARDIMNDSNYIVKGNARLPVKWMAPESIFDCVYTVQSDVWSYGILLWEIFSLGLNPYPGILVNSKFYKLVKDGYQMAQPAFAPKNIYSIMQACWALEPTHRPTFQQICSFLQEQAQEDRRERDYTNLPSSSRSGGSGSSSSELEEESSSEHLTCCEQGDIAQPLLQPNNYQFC
T4 sequence (O43318 whole entry): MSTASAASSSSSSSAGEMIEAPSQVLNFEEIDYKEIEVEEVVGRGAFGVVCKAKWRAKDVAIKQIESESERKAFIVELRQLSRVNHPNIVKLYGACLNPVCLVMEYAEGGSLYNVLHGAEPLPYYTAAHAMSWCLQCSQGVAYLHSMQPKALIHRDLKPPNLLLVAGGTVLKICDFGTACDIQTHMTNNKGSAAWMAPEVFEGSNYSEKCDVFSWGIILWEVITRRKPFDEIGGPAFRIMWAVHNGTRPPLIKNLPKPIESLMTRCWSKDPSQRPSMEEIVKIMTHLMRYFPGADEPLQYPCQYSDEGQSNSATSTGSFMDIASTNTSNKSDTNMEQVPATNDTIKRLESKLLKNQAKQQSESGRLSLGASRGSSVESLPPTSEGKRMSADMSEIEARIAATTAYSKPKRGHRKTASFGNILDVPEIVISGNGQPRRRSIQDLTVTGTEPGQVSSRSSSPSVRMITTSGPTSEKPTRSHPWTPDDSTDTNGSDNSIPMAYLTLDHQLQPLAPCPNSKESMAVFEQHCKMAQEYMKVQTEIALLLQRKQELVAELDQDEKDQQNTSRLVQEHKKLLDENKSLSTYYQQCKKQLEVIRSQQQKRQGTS
T4 sequence (Q15750 whole entry partner): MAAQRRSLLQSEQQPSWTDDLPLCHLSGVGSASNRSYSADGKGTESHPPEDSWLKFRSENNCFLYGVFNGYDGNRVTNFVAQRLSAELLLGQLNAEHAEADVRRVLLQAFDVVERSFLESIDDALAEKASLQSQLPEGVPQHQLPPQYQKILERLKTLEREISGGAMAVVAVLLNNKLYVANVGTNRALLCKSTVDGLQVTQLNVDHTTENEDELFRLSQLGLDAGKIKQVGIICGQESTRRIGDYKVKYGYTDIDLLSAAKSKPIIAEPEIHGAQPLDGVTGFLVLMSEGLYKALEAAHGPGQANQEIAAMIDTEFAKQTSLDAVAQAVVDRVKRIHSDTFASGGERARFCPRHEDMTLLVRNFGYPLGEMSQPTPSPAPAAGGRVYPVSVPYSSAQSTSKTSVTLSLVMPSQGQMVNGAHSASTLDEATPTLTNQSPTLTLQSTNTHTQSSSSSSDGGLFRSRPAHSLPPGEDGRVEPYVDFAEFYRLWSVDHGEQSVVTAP
Sequence of ACVR1 (Q04771 whole entry): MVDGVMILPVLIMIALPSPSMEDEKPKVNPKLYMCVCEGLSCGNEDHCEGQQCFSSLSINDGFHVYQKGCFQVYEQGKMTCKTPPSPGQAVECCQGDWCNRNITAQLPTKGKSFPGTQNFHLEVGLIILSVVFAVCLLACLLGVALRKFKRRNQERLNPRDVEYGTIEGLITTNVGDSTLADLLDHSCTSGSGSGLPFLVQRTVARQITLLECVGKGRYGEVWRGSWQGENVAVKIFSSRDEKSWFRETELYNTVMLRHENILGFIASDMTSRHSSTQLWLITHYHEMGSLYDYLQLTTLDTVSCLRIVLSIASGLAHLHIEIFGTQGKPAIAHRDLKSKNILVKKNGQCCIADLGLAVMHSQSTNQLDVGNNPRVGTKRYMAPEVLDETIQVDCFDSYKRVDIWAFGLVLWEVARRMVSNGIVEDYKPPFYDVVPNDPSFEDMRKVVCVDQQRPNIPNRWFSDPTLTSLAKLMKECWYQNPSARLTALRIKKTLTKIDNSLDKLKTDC
Sequence of MAP4K2 (Q12851 whole entry): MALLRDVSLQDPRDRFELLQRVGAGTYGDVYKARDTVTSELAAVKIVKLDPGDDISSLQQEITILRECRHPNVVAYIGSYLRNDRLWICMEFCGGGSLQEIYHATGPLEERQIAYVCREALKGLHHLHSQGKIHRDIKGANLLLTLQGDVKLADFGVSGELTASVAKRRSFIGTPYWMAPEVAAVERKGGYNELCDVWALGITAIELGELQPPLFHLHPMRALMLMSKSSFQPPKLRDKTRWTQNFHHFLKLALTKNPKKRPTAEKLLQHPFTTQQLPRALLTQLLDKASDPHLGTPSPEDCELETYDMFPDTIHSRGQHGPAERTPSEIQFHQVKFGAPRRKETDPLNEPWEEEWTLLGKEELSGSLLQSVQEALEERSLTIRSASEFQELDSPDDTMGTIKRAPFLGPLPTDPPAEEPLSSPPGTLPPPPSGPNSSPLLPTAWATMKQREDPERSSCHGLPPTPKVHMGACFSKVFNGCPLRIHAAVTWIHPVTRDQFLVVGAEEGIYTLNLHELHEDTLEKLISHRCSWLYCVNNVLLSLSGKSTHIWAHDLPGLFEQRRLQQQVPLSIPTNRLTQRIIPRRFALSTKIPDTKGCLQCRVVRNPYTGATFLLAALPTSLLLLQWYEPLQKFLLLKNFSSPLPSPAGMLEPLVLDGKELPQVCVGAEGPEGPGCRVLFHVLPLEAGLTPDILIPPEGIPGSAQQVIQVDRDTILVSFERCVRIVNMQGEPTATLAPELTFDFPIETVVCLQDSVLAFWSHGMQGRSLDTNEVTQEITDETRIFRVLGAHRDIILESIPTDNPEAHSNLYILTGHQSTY
Sequence of CAMKK2 (Q96RR4 whole entry): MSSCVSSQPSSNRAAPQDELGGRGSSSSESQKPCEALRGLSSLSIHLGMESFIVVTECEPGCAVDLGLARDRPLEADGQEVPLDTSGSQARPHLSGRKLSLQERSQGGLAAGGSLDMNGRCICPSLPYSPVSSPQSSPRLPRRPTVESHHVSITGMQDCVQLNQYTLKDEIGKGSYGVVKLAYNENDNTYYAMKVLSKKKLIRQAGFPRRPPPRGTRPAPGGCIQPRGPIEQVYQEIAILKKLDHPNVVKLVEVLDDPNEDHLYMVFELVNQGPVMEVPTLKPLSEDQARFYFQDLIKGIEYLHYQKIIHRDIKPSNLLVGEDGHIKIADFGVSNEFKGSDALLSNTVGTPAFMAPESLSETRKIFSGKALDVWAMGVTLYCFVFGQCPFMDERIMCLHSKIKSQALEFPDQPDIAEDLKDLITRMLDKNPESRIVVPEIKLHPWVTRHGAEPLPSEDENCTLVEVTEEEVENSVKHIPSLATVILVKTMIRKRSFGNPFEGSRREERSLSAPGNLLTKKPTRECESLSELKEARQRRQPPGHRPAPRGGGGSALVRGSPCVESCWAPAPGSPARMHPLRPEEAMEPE
Sequence of MERTK (Q12866 whole entry): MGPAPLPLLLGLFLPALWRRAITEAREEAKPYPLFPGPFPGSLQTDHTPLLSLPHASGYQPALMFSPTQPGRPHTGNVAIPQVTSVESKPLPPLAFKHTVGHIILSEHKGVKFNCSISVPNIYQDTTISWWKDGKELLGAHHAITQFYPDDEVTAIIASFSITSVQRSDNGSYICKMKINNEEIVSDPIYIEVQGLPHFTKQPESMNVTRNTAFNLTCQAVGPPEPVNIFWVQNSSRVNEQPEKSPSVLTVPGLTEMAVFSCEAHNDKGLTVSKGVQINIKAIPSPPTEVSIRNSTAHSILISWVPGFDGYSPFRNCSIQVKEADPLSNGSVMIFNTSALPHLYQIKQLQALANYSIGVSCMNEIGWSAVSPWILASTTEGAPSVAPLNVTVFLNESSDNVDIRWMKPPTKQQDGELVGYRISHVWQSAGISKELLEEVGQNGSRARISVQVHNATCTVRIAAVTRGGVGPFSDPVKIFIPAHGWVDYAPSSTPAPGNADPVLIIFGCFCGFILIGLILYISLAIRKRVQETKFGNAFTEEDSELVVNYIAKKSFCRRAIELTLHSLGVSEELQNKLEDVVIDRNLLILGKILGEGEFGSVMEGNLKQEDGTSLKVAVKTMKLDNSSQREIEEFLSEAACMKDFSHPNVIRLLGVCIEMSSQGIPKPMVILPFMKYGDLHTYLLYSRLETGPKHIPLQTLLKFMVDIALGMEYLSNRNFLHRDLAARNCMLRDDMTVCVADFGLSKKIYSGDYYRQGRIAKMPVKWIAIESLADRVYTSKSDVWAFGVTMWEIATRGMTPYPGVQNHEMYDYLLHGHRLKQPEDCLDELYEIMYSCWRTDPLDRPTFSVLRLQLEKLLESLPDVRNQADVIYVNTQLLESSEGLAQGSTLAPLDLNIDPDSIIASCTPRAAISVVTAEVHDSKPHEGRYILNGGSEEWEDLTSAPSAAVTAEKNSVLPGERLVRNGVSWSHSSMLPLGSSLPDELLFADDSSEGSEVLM

CC(C)CCN[C@@H]1CCc2cc(O)c(N3CC(=O)NS3(=O)=O)c(F)c2C1 [AC484, ABBV-CLS-484]
> 10 µM: all assays above
